Read-outs that look alike come from different tables or passages of the source.
Assays:
[1] = test system: European grapes (Vitis vinifera); assay: Phytotoxicity evaluation in the grapevine downy mildew trial
[2] = test system: Alternaria alternata; assay: Post-harvest preservation of capsicums; assay type: in vivo; conditions: capsicums sprayed twice, 10° C., followed 25 days, triplicate
Method: (§1) To investigate if zosteric acid and/or coumaric acid can protect fruit and vegetables against post-harvest infection with different fungi, zosteric and coumaric acids fungicidal effect was tested in capsicums and lemons infected with Alternaria alternata and Penicillium digitatum, respectively. The tests were performed by acquiring the relevant fruit and vegetables from the local supermarket. Both fruit and vegetables were bought as organic produce to ensure a minimum of pesticides had already been applied. […] Each application treatment was performed in triplicate on three separate pieces of produce. After treatment, the produce was allowed to dry in a sterile laminar flow cabinet followed by a second round of application and drying. The produce was then inoculated with the relevant fungal spores using a grafting stick. […] The inoculated produce was subsequently placed in […] plastic bags to prevent contamination with other organisms and to prevent the produce from drying out due to air circulation in the incubator. The wrapped capsicums and lemons were placed at 10° C. and the fungal growth followed by measuring the diameter of the growth from the point of inoculation for 25 days.

[3] = test system: Colletotrichum lindemuthianum; conditions: Bean anthracnose; crop Bean; Stanley 2002; cited from earlier work
[4] = test system: downy mildew in grapevine (plasmopara viticola); assay: Downy mildew in grapevine, controlled environment trial, foliar spray
[5] = test system: strawberries (Fragaria sp.); assay: Phytotoxicity evaluation in the strawberry powdery mildew trial; assay type: in vivo; conditions: at concentrations that control disease
[6] = test system: Magnaporthe grisea; conditions: Rice blast; crop Rice; Stanley 2002; cited from earlier work
[7] = test system: Cercospora beticola; assay: Cercospora leaf spot disease in sugarbeet; assay type: in vivo; conditions: crop Beta vulgaris vulg. altissima / sugarbeet
[8] = test system: late potato blight (Phytophtora infestans); assay type: in vivo, Phytophthora infestans; conditions: for reduction of pest severity: 5% zosteric acid and 0.3 L/ha BREAK THRU, vs untreated control
[9] = test system: tilletia caries; assay: Seed dressing against common bunt of wheat
Method: (§2) To investigate if zosteric acid can be applied as a seed dressing agent to prevent different seed borne fungal infections, the ability of zosteric acid to prevent infection of wheat and barley with the common bunt of wheat caused by tilletia caries and barley stribe, caused by pyronophora graminea was tested.
(§3) To investigate if zosteric acid can be applied as a seed dressing agent to prevent different seed borne fungal infections, the ability of zosteric acid to prevent infection of wheat and barley with the common bunt of wheat caused by tilletia caries and barley stribe, caused by pyronophora graminea) was tested.

[10] = test system: Penicillium digitatum; assay: Post-harvest preservation of lemons; assay type: in vivo
Method: as §1

[11] = test system: Septoria tritici; assay: Septoria leaf blotch; assay type: in vivo
[12] = test system: Puccinia striiformis; assay: Yellow rust in wheat, greenhouse trial, contact fungicide; conditions: crop Wheat
Method: A greenhouse trial was conducted to investigate if zosteric acid could be applied as a contact fungicide to control yellow rust in wheat. Wheat was sowed in one-liter pots, with five replicates per treatment. 14 days after sowing, plants were sprayed with 150 L/ha of 10% zosteric acid with 0.1% Tween. For reference, an untreated control, a treatment with 0.1% Tween, and a treatment with a currently used standard fungicide treatment for yellow rust was also included in the test. One day after spraying of the plants, they were inoculated with Puccinia striiformis which is the causative agent of yellow rust. Plants were assessed for attack with yellow rust 13, 19 and 21 days after infection with yellow rust.

[13] = test system: Aspergillus niger; conditions: Common mold; N/A (In vitro); Villa et al 2010; cited from earlier work
[14] = test system: Ustilago nuda; assay: Loose smut of barley; assay type: in vivo; conditions: crop Barley
[15] = test system: Blumeria graminis f. sp. tritici; assay: Powdery mildew in wheat; assay type: in vivo; conditions: crop Wheat
[16] = test system: potatoes (Solanum tuberosum, variety Venezia); assay: Phytotoxicity assessment in the potato blight climate chamber test; assay type: in vivo; conditions: throughout the trials (0.1%, 1%, 5% zosteric acid)
Method: The application was conducted with a Research Track Sprayer and three different concentrations of zosteric acid (0.1%, 1%, and 5%) were sprayed one day before pathogen inoculation and two different concentrations of zosteric acid (1% and 5%) were sprayed after inoculation as soon as the infection got visible. Plants were assessed for phytotoxicity and pest severity 0, 4, and 7 days after the curative application.

[17] = test system: pyronophora graminea; assay: Seed dressing against barley stripe
Method: as §2, §3

[18] = test system: Penicillium citrinum; conditions: Mold on citrus fruits; N/A (In vitro); Villa et al 2010; cited from earlier work
[19] = test system: Leptosphaeria maculans; assay: Blackleg disease in winter rape; assay type: in vivo; conditions: crop Brassica napus / winter rape
[20] = test system: powdery mildew (Podosphaera aphanis); assay: Powdery mildew in strawberries, controlled environment trial; conditions: crop Strawberries
Method: The efficacy was evaluated as % area of leaves that were infected with disease based on evaluation of 50 leaves from each plant. The evaluation was performed 30 days after the first treatment and 10 days after the last treatment.
Five different treatments were applied; 1) an untreated control, 2) zosteric acid at 3%, 3) zosteric acid at 6%, 4) zosteric acid at 9%, 5) Karma at 3 kg/ha. […] Four treatment applications were performed at day 0, 7, 14, and 21 respectively. Prior to each application the infection and phytotoxicity of the plants were evaluated and scored.

In the case of `O=C(O)/C=C/c1ccc(O)cc1` [coumaric acid], the phytotoxicity ([1]; 5% treatment, Example 9 trial) is reported as 23.5% and the “time after inoculation until A. alternata growth was displayed” value [2] is reported as 25 days.

In the case of `O=C(O)/C=C/c1ccc(OS(=O)(=O)O)cc1` [zosteric acid], the “zosteric acid effective (Yes/No)” value [3] is given as “Yes”, the “zosteric acid effective (Yes/No)” value ([4]; Downy mildew in wine, crop Vitis vinifera / European grape) is given as “highly effective and Yes” and the “efficacy compared with positive control Funguran Progress (copper)” value ([4]; Example 9 trial) is given as “comparable to the positive control Funguran Progress”. For the same molecule, the “dose response of disease control” value ([4]; increasing doses of zosteric acid, scored 17 days after application) was “clear dose response”, the phytotoxicity [5] was “no phytotoxicity” and the “zosteric acid effective (Yes/No)” value [6] was “Yes”. The “zosteric acid effective (Yes/No)” value [7] was “not effective and No”, the “reduction of pest severity” value ([8]; 0 days from the curative treatment) was 7.8% and the “reduction of pest severity” value ([8]; 4 days from the curative treatment) was 7.3%. For the same molecule, the “reduction of pest severity” value ([8]; 7 days from the curative treatment) was 6.6%, the “zosteric acid effective (Yes/No)” value ([8]; Potato blight, crop Solanum tuberosum / potato) was “highly effective and Yes” and the “zosteric acid effective (Yes/No)” value ([9]; Common bunt of wheat, crop Wheat) was “good efficacy and Yes”. For the same molecule, the “effect in combination with Redigo Pro” value ([9]; protection against common bunt of wheat, seed dressing) was “strong synergistic effect”, the “reduction of percentage of infected plant ears compared to untreated control” value (“reduction of percentage … to untreated control” for short) ([9]; wheat seeds treated with 0.1% zosteric acid) was “more than 2 fold” and the “reduction of percentage … to untreated control” value ([9]; wheat seeds treated with 1% zosteric acid) was “more than 2 fold”. For the same molecule, the “time after inoculation until P. digitatum growth was observed” value ([10]; lemons sprayed twice, 10° C., followed 25 days, triplicate) was 19 days, the “replicates with P. digitatum growth at end of test period” value ([10]; lemons, day 25, three replicates) was “only a single replicate” and the “zosteric acid effective (Yes/No)” value [11] was “not effective and No”. For the same molecule, the “zosteric acid effective (Yes/No)” value [12] was “effective and Yes”, the “zosteric acid effective (Yes/No)” value [13] was “Yes” and the “zosteric acid effective (Yes/No)” value [14] was “no efficacy and No”. The “zosteric acid effective (Yes/No)” value [15] was “not effective and No”, the phytotoxic effects [16] was “No phytotoxic effects were observed” and the “zosteric acid effective (Yes/No)” value ([17]; Barley stripe, crop Barley) was “Yes”. For the same molecule, the “reduction of percentage … to untreated control” value ([17]; barley seeds treated with 0.1% zosteric acid) was “more than 2 fold”, the “reduction of percentage … to untreated control” value ([17]; barley seeds treated with 1% zosteric acid) was “more than 2 fold” and the “zosteric acid effective (Yes/No)” value [18] was “Yes”. The “zosteric acid effective (Yes/No)” value [19] was “not effective and No”, the phytotoxicity ([1]; 1% zosteric acid, scored 13 days after application) was under 0.5% and the phytotoxicity ([1]; 5% treatment, Example 9 trial) was 7%. The phytotoxic effects ([1]; at the effective concentration, scored 13 days after application) was “does not have significant phytotoxic effects”, the phytotoxicity ([1]; high concentrations (>2%), scored 13 days after application) was “start to be phytotoxic” and the “zosteric acid effective (Yes/No)” value [20] was “Yes”. The “time after inoculation until A. alternata growth was displayed” value [2] was 19 days.

Source: patent publication US20260101892A1, “METHOD TO INHIBIT PROLIFERATION OF A PHYTOPATHOGEN ON PLANTS AND COMPOSITIONS USED FOR THIS PURPOSE” (CYSBIO APS, priority 2022, published 2026)
